Data on 27 compounds can be found in US7589097B2, “Triazol[4,5-d] pyramidine derivatives and their use as purinergic receptor antagonists” (Vernalis Research Limited, priority 2001, dated 2009).

As usually defined, the melting point is the temperature of the solid-liquid transition. Take `CCOc1cccc(Cn2nnc3c(-c4ccco4)nc(N)nc32)n1` [Example 253, 3-(6-ethoxy-2-pyridylmethyl)-7-(2-furyl)-3H-[1,2,3]triazolo[4,5-d]pyrimidine-5-amine]: the melting point was 181.8 to 182.1 °C.

For `Nc1nc(-c2ccco2)c2nnn(Cc3cc([N+](=O)[O-])cc([N+](=O)[O-])c3)c2n1`, the melting point fell in the range of 264.5 to 264.8 °C.

`Cc1cc(Cn2nnc3c(-c4ccco4)nc(N)nc32)cc(C)c1[N+](=O)[O-]` [Example 259, 3-(3,5-dimethyl-4-nitrobenzyl)-7-(2-furyl)-3H-[1,2,3]triazolo[4,5-d]pyrimidine-5-amine] yielded a melting point of 228.4 to 228.5 °C. For `NCc1cccc(Cn2nnc3c(-c4ccn[nH]4)nc(N)nc32)c1` [Example 101, 3-(3-Aminomethylbenzyl)-7-(1H-pyrazol-3-yl)-3H-[1,2,3]triazolo[4,5-d]pyrimidine-5-amine] the value was 279.9 to 280.3 °C; for `Nc1cccc(Cn2nnc3c(-c4ccccc4)nc(N)nc32)c1` [Example 151, 3-(3-aminobenzyl)-7-phenyl-3H-[1,2,3]triazolo[4,5-d]pyrimidine-5-amine], 251.2 to 251.5 °C; for `Nc1nc(-c2ccco2)c2nnn(Cc3ccc(F)c(N)c3)c2n1` [Example 165, 3-(3-amino-4-fluorobenzyl)-7-(2-furyl)-3H-[1,2,3]triazolo[4,5-d]pyrimidine-5-amine], 259.7 to 259.8 °C. Consider `COCCc1cccc(Cn2nnc3c(-c4ccco4)nc(N)nc32)n1` [Example 264, 7-(2-furyl)-3-(6-(2-methoxyethyl)-2-pyridylmethyl)-3H-[1,2,3]triazolo[4,5-d]pyrimidine-5-amine], for which the melting point lay within 162 to 162.6 °C. To `Cc1ccc(-c2nc(N)nc3c2nnn3Cc2cccc(Cl)n2)o1` [Example 81, 3-(6-chloro-2-pyridylmethyl)-7-(5-methyl-2-furyl)-3H-[1,2,3]triazolo[4,5-d]pyrimidine-5-amine] belongs 229.3 to 229.4 °C; to `N#Cc1ccnc(Cn2nnc3c(-c4ccco4)nc(N)nc32)c1` [Example 105, 3-(4-cyano-2-pyridylmethyl)-7-(2-furyl)-3H-[1,2,3]triazolo[4,5-d]pyrimidine-5-amine], 263.2 to 263.5 °C; to `Cc1cc(Cn2nnc3c(-c4ccco4)nc(N)nc32)c2[nH]ccc2c1` [Example 243, 7-(2-furyl)-3-(5-methyl-7-indolylmethyl)-3H-[1,2,3]triazolo[4,5-d]pyrimidine-5-amine], > 300 °C (dec.).

`CCc1cc(Cn2nnc3c(-c4ccco4)nc(N)nc32)ccn1` [Example 136, 3-(2-ethyl-4-pyridylmethyl)-7-(2-furyl)-3H-[1,2,3]triazolo[4,5-d]pyrimidine-5-amine] registered a melting point of 172.7 to 173.2 °C. For `CC(C)(C)OC(=O)n1ccc2cccc(Cn3nnc4c(-c5ccco5)nc(N)nc43)c21` [Example 137, tert-butyl 7-(5-amino-7-(2-furyl)-3H-[1,2,3]triazolo[4,5-d]pyrimidine-3-ylmethyl)indole-1-carboxylate] the value was 176.3 to 176.5 °C; for `Nc1nc(-c2ccco2)c2nnn(Cc3ccccn3)c2n1` [Example 24, 7-(2-Furyl)-3-(2-pyridylmethyl)-3H-[1,2,3]triazolo[4,5-d]pyrimidine-5-amine], 196.9 to 197.1 °C.

On to `CC(c1cccc(F)c1)n1nnc2c(-c3ccco3)nc(N)nc21` (stereo not drawn) [Example 260, 3-(1-(3-fluorophenyl)ethyl)-7-(2-furyl)-3H-[1,2,3]triazolo[4,5-d]pyrimidine-5-amine], for which the melting point fell in the range of 150.3 to 151 °C. For `Cc1noc(C)c1Cn1nnc2c(-c3ccco3)nc(N)nc21` [Example 91, 3-(3,5-dimethylisoxazol-4-ylmethyl)-7-(2-furyl)-3H-[1,2,3]triazolo[4,5-d]pyrimidine-5-amine] the value was 284.3 to 284.5 °C; for `Nc1nc(-c2ccco2)c2nnn(Cc3cc(F)ccc3[N+](=O)[O-])c2n1` [Example 155, 3-(5-fluoro-2-nitrobenzyl)-7-(2-furyl)-3H-[1,2,3]triazolo[4,5-d]pyrimidine-5-amine], 258.6 to 258.7 °C; for `Nc1nc(-c2ccco2)c2nnn(Cc3cc4ccccc4[nH]3)c2n1` [Example 207, 3-(2-indolylmethyl)-7-(2-furyl)-3H-[1,2,3]triazolo[4,5-d]pyrimidine-5-amine], 289.1 to 289.3 °C. The compound `CC(C)c1cc(Cn2nnc3c(-c4ccco4)nc(N)nc32)ccc1[N+](=O)[O-]` [Example 187, 7-(2-furyl)-3-(3-isopropyl-4-nitrobenzyl)-3H-[1,2,3]triazolo[4,5-d]pyrimidine-5-amine] returned a melting point of 191.7 to 191.9 °C. For `CC(C)(C)OC(=O)n1ccc2ccc(Cn3nnc4c(-c5ccco5)nc(N)nc43)cc21` [Example 146, tert-butyl 6-(5-amino-7-(2-furyl)-3H-[1,2,3]triazolo[4,5-d]pyrimidine-3-ylmethyl)indole-1-carboxylate] the value was 180 to 180.5 °C; for `Nc1cccc(Cn2nnc3c(-c4ccc[nH]4)nc(N)nc32)c1` [Example 191, 3-(3-aminobenzyl)-7-(1H-pyrrol-2-yl)-3H-[1,2,3]triazolo[4,5-d]pyrimidine-5-amine], 186.1 to 189.1 °C. Regarding `CC(C)(C)OC(=O)NCc1ccc(Cn2nnc3c(-c4ccco4)nc(N)nc32)cc1` [Example 140, tert-butyl N-(4-(5-amino-7-(2-furyl)-3H-[1,2,3]triazolo[4,5-d]pyrimidine-3-ylmethyl)benzyl)carbamate], the melting point fell in the range of 184 to 185.2 °C. To `COc1ccccc1Cn1nnc2c(-c3ccc(C)o3)nc(N)nc21` [Example 72, 3-(2-methyoxybenzyl)-7-(5-methyl-2-furyl)-3H-[1,2,3]triazolo[4,5-d]pyrimidine-5-amine] belongs 195.4 to 196.5 °C. To `Nc1nc(-c2ccco2)c2nnn(CC(=O)NCc3ccccn3)c2n1` [Example 53, (5-amino-7-(2-furyl)-3H-[1,2,3]triazolo[4,5-d]pyrimidin-3-yl)-N-(2-pyridylmethyl)acetamide] belongs 256.1 to 256.4 °C. To `CCOc1cccc(Cn2nnc3c(-c4ccc(C)o4)nc(N)nc32)n1` [Example 254, 3-(6-ethoxy-2-pyridylmethyl)-7-(5-methyl-2-furyl)-3H-[1,2,3]triazolo[4,5-d]pyrimidine-5-amine] belongs 190.8 to 190.9 °C; to `Cc1ccc(-c2nc(N)nc3c2nnn3Cc2cccc([N+](=O)[O-])c2C)o1` [Example 267, 7-(5-methyl-2-furyl)-3-(2-methyl-3-nitrobenzyl)-3H-[1,2,3]triazolo[4,5-d]pyrimidine-5-amine], 255.6 to 255.7 °C; to `CC(c1ccc(C(F)(F)F)cc1)n1nnc2c(-c3ccco3)nc(N)nc21` (stereo not drawn) [Example 256, 7-(2-furyl)-3-(1-(4-frifluoromethylphenyl)ethyl)-3H-[1,2,3]triazolo[4,5-d]pyrimidine-5-amine], 167.6 to 168.1 °C.

`Cc1cccc(Cn2nnc3c(-c4ccco4)nc(N)nc32)n1` [Example 37, 7-(2-furyl)-3-(6-methyl-2-pyridylmethyl)-3H-[1,2,3]triazolo[4,5-d]pyrimidine-5-amine]: the melting point lay in the range of 200.8 to 218.9 °C.
